# Laboratory results as given in publication PMC7065129, “Phospholipase D‐derived phosphatidic acid promotes root hair development under phosphorus deficiency by suppressing vacuolar degradation of PIN‐FORMED2” (The New Phytologist, 2019).
# Biological target: T1, SNX1 (SORTING NEXIN1; AtSNX1) (Arabidopsis thaliana, UniProt Q9FG38)
# T1 construct: full-length cDNA in pET51b, His-tagged (tag kept), E. coli Rosetta (DE3), Ni-NTA purified
# T1 sequence (Q9FG38 1-402): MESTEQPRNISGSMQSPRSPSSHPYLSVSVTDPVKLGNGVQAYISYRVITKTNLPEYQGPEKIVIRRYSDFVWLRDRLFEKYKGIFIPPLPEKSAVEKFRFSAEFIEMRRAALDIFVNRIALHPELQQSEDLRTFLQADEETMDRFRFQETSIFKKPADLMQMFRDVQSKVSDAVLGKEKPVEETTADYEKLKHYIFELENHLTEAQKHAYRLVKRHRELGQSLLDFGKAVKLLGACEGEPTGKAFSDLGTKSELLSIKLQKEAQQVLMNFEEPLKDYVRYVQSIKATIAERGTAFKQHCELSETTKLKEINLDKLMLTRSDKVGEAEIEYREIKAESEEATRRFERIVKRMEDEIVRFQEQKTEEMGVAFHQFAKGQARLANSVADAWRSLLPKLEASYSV
# Test: liposome co-sedimentation, immunoblot
# Format: binding
# Conditions: dioleoyl PC/dioleoyl PA liposomes, pH 7.5, 25 °C; PA (acyl chains not told) also tested by lipid-protein overlay
structure (smiles),measurement,value
CCCCCCCC/C=C\CCCCCCCC(=O)OC[C@H](COP(=O)(O)O)OC(=O)CCCCCCC/C=C\CCCCCCCC [dioleoyl PA],"liposome co-sedimentation, immunoblot",results confirmed the specific SNX1‐PA binding (Fig. 4b)
